Source: patent US9062046B2, “Substituted imidazoquinoline derivatives as kinase inhibitors” (Piramal Enterprises Limited, priority 2011, dated 2015)

Tests used:
[1] = tested on: PC3 (prostate cell line); assay: Cytotoxicity assay (propidium iodide assay), PC3; format: cell-based; details: Homo sapiens, PC-3; PC3 cells, 48 h treatment
Procedure, shortened: (§1)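 A2780 and PC3 cells, 3000/well, were treated with compound for 48 h after 18-24 h attachment. After washing, propidium iodide 7 μg/ml was added, followed by freeze-thaw at −70 °C and a fluorescence read. Viability was taken relative to untreated wells, with IC50 derived from the curves.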

[2] = target: T1, p110α (Homo sapiens, UniProt P42336); assay: p110α radioactive lipid kinase assay (PI3Kα); format: biochemical; details: 25 μM ATP, 2 h at RT, read-out: IC50 in μM (PI3 kinase activity)
T1 construct: purchased Upstate Millipore
T1 sequence (P42336 whole entry, species assumed): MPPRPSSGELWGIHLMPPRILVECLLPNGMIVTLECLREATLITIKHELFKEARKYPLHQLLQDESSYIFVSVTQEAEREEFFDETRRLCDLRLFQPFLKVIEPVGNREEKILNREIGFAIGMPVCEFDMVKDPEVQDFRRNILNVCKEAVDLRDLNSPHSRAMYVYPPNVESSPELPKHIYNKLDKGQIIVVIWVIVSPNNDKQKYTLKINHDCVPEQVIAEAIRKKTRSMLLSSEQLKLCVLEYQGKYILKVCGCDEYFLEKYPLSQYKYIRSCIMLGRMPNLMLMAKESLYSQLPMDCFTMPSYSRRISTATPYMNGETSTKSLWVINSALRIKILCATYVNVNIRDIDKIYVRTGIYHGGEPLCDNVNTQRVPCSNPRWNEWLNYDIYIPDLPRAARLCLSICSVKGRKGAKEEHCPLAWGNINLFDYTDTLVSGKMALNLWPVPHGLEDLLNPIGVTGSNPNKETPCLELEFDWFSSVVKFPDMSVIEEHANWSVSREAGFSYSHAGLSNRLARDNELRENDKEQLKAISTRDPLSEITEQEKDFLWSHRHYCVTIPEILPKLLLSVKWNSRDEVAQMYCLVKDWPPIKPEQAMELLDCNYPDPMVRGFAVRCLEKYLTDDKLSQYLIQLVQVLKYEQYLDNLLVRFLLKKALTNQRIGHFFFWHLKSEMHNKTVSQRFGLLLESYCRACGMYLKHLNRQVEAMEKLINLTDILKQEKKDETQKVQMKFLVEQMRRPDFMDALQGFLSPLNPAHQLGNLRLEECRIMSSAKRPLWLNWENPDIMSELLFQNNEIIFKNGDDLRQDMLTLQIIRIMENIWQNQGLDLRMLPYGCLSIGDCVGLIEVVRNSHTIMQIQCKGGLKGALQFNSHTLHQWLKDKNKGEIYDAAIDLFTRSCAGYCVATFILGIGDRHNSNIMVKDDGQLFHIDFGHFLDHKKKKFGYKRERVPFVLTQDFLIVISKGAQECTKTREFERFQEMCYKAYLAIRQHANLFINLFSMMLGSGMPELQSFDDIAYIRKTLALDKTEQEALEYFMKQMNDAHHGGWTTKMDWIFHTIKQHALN
T1 sequence (P27986 whole entry partner, species assumed): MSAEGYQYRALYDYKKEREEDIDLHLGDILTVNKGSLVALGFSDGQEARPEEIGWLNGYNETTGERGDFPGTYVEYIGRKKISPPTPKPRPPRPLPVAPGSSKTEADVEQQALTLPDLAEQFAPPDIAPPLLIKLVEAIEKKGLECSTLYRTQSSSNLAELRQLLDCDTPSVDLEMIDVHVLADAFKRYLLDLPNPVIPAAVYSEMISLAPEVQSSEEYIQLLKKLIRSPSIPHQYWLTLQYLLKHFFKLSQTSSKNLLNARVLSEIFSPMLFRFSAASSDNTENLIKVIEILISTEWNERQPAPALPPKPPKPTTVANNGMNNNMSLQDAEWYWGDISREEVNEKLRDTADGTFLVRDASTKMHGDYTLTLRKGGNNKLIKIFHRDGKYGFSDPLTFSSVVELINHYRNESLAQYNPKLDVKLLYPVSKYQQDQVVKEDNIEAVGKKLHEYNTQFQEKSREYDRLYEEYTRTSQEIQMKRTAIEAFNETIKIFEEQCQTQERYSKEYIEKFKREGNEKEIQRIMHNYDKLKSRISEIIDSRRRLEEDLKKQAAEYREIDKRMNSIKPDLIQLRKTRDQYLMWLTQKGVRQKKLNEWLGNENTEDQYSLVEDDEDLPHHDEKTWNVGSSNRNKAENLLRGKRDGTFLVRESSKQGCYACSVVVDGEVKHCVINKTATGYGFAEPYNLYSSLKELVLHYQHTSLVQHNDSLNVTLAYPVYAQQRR
Experimental: Protocol for Kinase Assay (PI3Kα)
p110α Radioactive Lipid Kinase Assay
The assay was designed as in the reference, Journal of Biomolecular Screening, 2002, Vol. 7, No. 5, 441-450, the disclosure of which is incorporated by reference for the teaching of the assay.
The p110α biochemical assay was performed using a radioactive assay measuring the incorporation of ^32P into the p110α substrate, phosphatidylinsoitol (PI). For the generation of IC50 curves, the reaction was performed in a 96-well MaxiSorp plates. Plates were pre-coated with 4 μg/well of a 1:1 ratio of phosphatidylinositol (PI: Avanti #840042C) and phosphatidylserine (PS: Avanti #840032C) diluted in CHCl3. Equal amount of p110α (Upstate Millipore) protein was added to each well, containing reaction buffer (50 mM MOPSO pH7.0, 100 mM NaCl, 4 mM MgCl2, 0.1% (w/v) BSA) whereas, for negative control, only reaction buffer was added. Test compounds (referred to by example nos. in the following table 1) dissolved in DMSO were treated at nine-point dose responses. Reactions were initiated by the addition of 25 μM ATP solution containing 50 μCi/ml [γ-^32P]-ATP and incubated at RT for 2 h with gentle shaking. Reactions were finally terminated by the addition of 50 mM EDTA stock solution. Plates were washed 3 times with TBS buffer. The plates were air dried, Microscint 0 (Perkin Elmer) was added to each well and the plates were sealed. The radioactivity incorporated into the immobilized PI substrate was determined with Top Count (Perkin Elmer). Inhibition was calculated using the following equation: % inhibition=(Dcpm−Tcpm)/(Dcpm)×100 • Tcpm=^32P-cpm in presence of test compounds • Dcpm=^32P-cpm in DMSO control (enzyme control deducted) Results: IC50 values of test compounds for PI3 kinase activity is indicated in Table 1.

[3] = tested on: A2780 (ovarian cell line); assay: Cytotoxicity assay (propidium iodide assay), A2780; format: cell-based; details: Homo sapiens; A2780 cells, 48 h treatment
Procedure, shortened: as §1

| SMILES | IC50 [1] [µM] | IC50 [2] [µM] | IC50 [3] [µM] |
| --- | --- | --- | --- |
| Cn1c(=NC#N)n(-c2ccc(C(C)(C)C#N)nc2)c2c3cc(-c4ccc5cn[nH]c5c4)ccc3ncc21 [Example 77, N-(1-(6-(2-cyanopropan-2-yl)pyridin-3-yl)-8-(1H-indazol-6-yl)-3-methyl-1H-imidazo[4,5-c]quinolin-2(3H)-ylidene)cyanamide] | ≤ 0.5 | 0.01 to 1 | ≤ 0.5 |
| Cc1cc(-c2ccc3ncc4c(c3c2)n(-c2ccc(C(C)(C)C#N)nc2)c(=NC#N)n4C)cnc1F [Example 78, N-(1-(6-(2-cyanopropan-2-yl)pyridin-3-yl)-8-(6-fluoro-5-methylpyridin-3-yl)-3-methyl-1H-imidazo[4,5-c]quinolin-2(3H)-ylidene)cyanamide] | ≤ 0.5 | 0.01 to 1 | ≤ 0.5 |
| Cn1c(=NC#N)n(-c2ccc(C(C)(C)C#N)nc2)c2c3cc(-c4ccc5cc[nH]c5c4)ccc3ncc21 [Example 79, N-(1-(6-(2-cyanopropan-2-yl)pyridin-3-yl)-8-(1H-indol-6-yl)-3-methyl-1H-imidazo[4,5-c]quinolin-2(3H)-ylidene)cyanamide] | ≤ 0.5 | ≤ 0.01 | ≤ 0.5 |
| COc1ncc(-c2ccc3ncc4c(c3c2)n(-c2ccc(C(C)(C)C#N)nc2)c(=NC#N)n4C)cc1N [Example 95, N-(8-(5-amino-6-methoxypyridin-3-yl)-1-(6-(2-cyanopropan-2-yl)pyridin-3-yl)-3-methyl-1H-imidazo[4,5-c]quinolin-2(3H)-ylidene)cyanamide] | ≤ 0.5 | 0.01 to 1 | ≤ 0.5 |
| COc1ncc(-c2ccc3ncc4c(c3c2)n(-c2ccc(C(C)(C)C#N)nc2)c(=NC#N)n4C)cc1NS(=O)(=O)c1ccccc1 [Example 125, N-(5-(2-(cyanoimino)-1-(6-(2-cyanopropan-2-yl)pyridin-3-yl)-3-methyl-2,3-dihydro-1H-imidazo[4,5-c]quinolin-8-yl)-2-methoxypyridin-3-yl)benzenesulfonamide] | ≤ 0.5 | ≤ 0.01 | ≤ 0.5 |
